Where “and” joins values, the source holds several entries; their conditions need not be identical. Equal values may be shown once. Entries after “also recorded” stand apart in the source; their conditions may differ.
Tests used:
NCS-1/Ric8a interaction = biological target: T1, NCS-1/Ric8a interaction (Homo sapiens, UniProt P62166); experiment: Co-IP binding assay of human NCS-1 and V5-tagged Ric8a in transfected HEK cells; assay type: cell-based; settings: compound 20 μM; for modulation of the NCS-1/Ric8a binding: compared with DMSO (basal binding 100%); for Densitometry of V5-Ric8a co-immunoprecipitated with NCS-1, exp4: DMSO in the same experiment 3222255; for Densitometry of V5-Ric8a co-immunoprecipitated with NCS-1, exp3: DMSO in the same experiment 4613104; for Densitometry of V5-Ric8a co-immunoprecipitated with NCS-1, exp2: DMSO in the same experiment 9508518; for Densitometry of V5-Ric8a co-immunoprecipitated with NCS-1, exp1: DMSO in the same experiment 19247016
T1 construct: expressed in transfected cells; host or cells: HEK293 cells (Dharmacon)
T1 sequence (P62166 2-190 limits assumed): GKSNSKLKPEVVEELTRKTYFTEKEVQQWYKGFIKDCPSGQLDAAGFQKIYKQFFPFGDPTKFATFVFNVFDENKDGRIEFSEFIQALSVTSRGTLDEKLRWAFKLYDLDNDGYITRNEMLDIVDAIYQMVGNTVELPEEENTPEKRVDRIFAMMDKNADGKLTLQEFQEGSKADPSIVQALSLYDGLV
Text: Mean ± SD from three independent experiments. The curves represent the least squares fitting of the experimental data to a 1:1 stoichiometry. To properly compare the different curves, intensities were normalized and represented. […] Input represents 1/10 cell lysates before IP. Quantifications of each lane from four experiments are shown below the blots. Bars represent percentage of NCS-1/ Ric8a binding (mean ± SD) normalized to DMSO. […] CNS + (green) for Pe > 4.47 × 10^−6 cm s^−1, CNS- (red) for compounds with Pe < 4.47 × 10^–6 cm s^−1. […] Mean ± SD from three independent experiments. […] Then, the percentage of picnotic bodies over the total nuclei was analyzed. Mean ± SD from three independent experiments. Paired two-tailed Student’s test ***P˂0.001; **P < 0.01; *P < 0.05. Source data are provided as a Source Data file. IP immunoprecipitation, WB western blot
Binding assays with NCS-1 and Ric8a in co-transfected HEK cells were carried out to study the modulation effect of compounds 3a, 3b and 3d in the protein-protein interaction (Fig. 6b).
hNCS-1 and V5-tagged hRic8a were co-transfected into HEK293 cells (Dharmacon) using Lipofectamine 2000 (Invitrogen)[13]. After 24 h, after transfection, DMSO alone or the compounds dissolved in DMSO (20 μM) were added to the culture cells. Then, 24 h after transfection, cells were lysed with Lysis buffer (150 mM NaCl, 1.0% Nonidet P-40, 50 mM Tris, pH 8.0) in the presence of the compounds (20 μM), whose concentration was maintained throughout the immunoprecipitation assay. Precleared lysates were incubated overnight (12 h) at 4 °C with mouse anti-NCS-1 (1:500; Cell Signaling). Samples were subsequently incubated overnight with Protein-G-Sepharose (Sigma-Aldrich), washed and eluted from the Sepharose. Samples were analyzed by Western blot following standard procedures. […] Original representative western blots are found in Source Data file.

dNCS-1 = biological target: T2, dNCS-1 (Drosophila melanogaster, UniProt Q9VWX8); experiment: Protein-directed DCL, HPLC-MS relative peak area with and without dNCS-1; settings: for RPA, Blank DCL / RPA, Templated DCL: as fraction of total area; for RPA, Templated DCL: with dNCS-1; for RPA (%) with protein (templated DCL): relative peak area in presence of dNCS-1; for RPA (%) without protein (blank DCL): relative peak area, sum of all peak areas set to 100%; for RPA (%), Blank DCL: sheet Supplementary Figure 10; for RPA (%), Templated DCL: sheet Supplementary Figure 10, with dNCS-1
T2 construct: made in house; host or cells: E. coli
T2 sequence (Q9VWX8 1-187): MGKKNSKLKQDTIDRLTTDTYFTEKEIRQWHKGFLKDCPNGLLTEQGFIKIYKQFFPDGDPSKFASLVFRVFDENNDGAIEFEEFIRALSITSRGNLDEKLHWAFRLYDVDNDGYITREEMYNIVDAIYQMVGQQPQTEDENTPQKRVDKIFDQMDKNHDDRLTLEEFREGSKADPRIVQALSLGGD
Description: The reversibility of the DCL was evident, since an identical equilibrium distribution to that shown in Fig. 4a was obtained when two different starting points were employed. The observed degree of amplification was 3b > 3e ≥ 3d > 3a. The precise composition of the DCL (with and without dNCS-1), was assessed by measuring the relative peak area (RPA). Indeed, the normalized change of RPA was used to quantify the protein influence in the final outcome (Supplementary Figs. 9, 10 and Supplementary Tables 1, 2 and 3)[28]. […] Note that compounds 3a–3e can exist as E/Z isomers of the C = N bond. […].
Aldehyde 1 (1.2 μL, 50 mM, DMSO), the five acylhydrazides 2a–2e (5 × 3.6 μL, 50 mM, DMSO), p-anisidine (1 μL, 12 M, DMSO) and buffer 20 mM Tris, 0.5 M NaCl and 1 mM CaCl2, 1 mM DTT at pH 7.4 (750 μL) in 3.3 % DMSO. The mixture was stabilized in 5 h at 4 °C. HPLC analysis was performed.
Aldehyde 1 (1.2 μL, 50 mM, DMSO), the five acylhydrazides 2a–2e (5 × 3.6 μL, 50 mM, DMSO), p-anisidine (1 μL, 12 mM, DMSO) and dNCS-1 in buffer 20 mM Tris, 0.5 M NaCl and 1 mM CaCl2, 1 mM DTT at pH 7.4 (66.7 μM, 750 μL, 1 eq.). The experiment is in 3.3% DMSO. The mixture was stabilized for 5 h at 4 °C. Then, dNCS-1 was removed by ultrafiltration using an Amicon Ultra filter (0.5–10 KDa). HPLC analysis was performed and the traces were compared with the blank composition.
Supplementary Figure 9. Relative Peak Area of the DCL with and without dNCS1. Aldehyde
1 (1.2 µL, 50 mM), 2a-e (3.6 µL, 50 mM), catalyst (1 µL, 12 M), dNCS-1:1 [1:1], tris buffer (20
mM, pH 7.4), 1 mM CaCl2, 0.5 M NaCl, 1 mM DTT, T = 4 °C, 2% DM SO. Mean relative peak
area (RPA) of each acylhydrazone of the library in the absence (blank) and presence of dNCS-1.
Error bars indicate standard deviation (SD) over three experiments. The calculation is set by the
sum of all peak areas to 100% and assigning each peak its percentage. Source data are provided
R P A N o rm aliz ed V a riation
Supplementary Figure 10. RPA normalized of variation of DCL with and without dNCS1.
Aldehyde 1 (1.2 µL, 50 mM), 2a-e (3.6 µL, 50 mM), catalyst (1 µL, 12 M), dNCS-1:1 [1:1], tris
buffer (20 mM, pH 7.4), 1 mM CaCl2, 0.5 M NaCl, 1 mM DTT, T = 4 °C, 2% DM SO. Error
bars indicate SD over three experiments. Source data are provided as a Source Data file.

Densitometry of V5-Ric8a co-immunoprecipitated with NCS-1, exp4 (NCS-1/Ric8a interaction) | Densitometry of V5-Ric8a co-immunoprecipitated with NCS-1, exp3 (NCS-1/Ric8a interaction) | Densitometry of V5-Ric8a co-immunoprecipitated with NCS-1, exp2 (NCS-1/Ric8a interaction) | Densitometry of V5-Ric8a co-immunoprecipitated with NCS-1, exp1 (NCS-1/Ric8a interaction) | RPA, Blank DCL (dNCS-1) | RPA, Templated DCL (dNCS-1) | RPA (%) with protein (templated DCL) (dNCS-1) | RPA (%) without protein (blank DCL) (dNCS-1) | RPA (%), Blank DCL (dNCS-1) [%] | RPA (%), Templated DCL (dNCS-1) [%] | SMILES | modulation of the NCS-1/Ric8a binding (NCS-1/Ric8a interaction)
1982719 | 1649426 | 4838154 | 13971167 | 0.2727 | 0.1875 | 18.8% and 18.7508% | 27.3% and 27.2702% | 27.3 | 18.8 | O=C(N/N=C/c1ccc([N+](=O)[O-])c(O)c1)c1ccco1 [3a] | reduced binding; also recorded: inhibitor similar to CPZ
9362004 | 7268347 | 15828581 | 32007200 | 0.1921 | 0.2944 | 29.4% and 29.4401% | 19.2% and 19.208% | 19.2 | 29.4 | O=C(Cc1c[nH]c2ccccc12)NN=Cc1ccc([N+](=O)[O-])c(O)c1 (mixture of isomers) [3b] | strong binding; also recorded: promote the stabilization of the NCS-1/Ric8a interaction
6181447 | 9737953 | 13428024 | 25716501 | 0.1114 | 0.0839 | 8.4% and 8.39% | 11.1% and 11.1444% | 11.1 | 8.39 | O=C(NN=Cc1ccc([N+](=O)[O-])c(O)c1)C(O)c1ccccc1 (mixture of isomers) [3d] | strong binding; also recorded: promote the stabilization of the NCS-1/Ric8a interaction
